Test results reported in patent US20260092054A1, “FUSED RING COMPOUND AND PHARMACEUTICAL CONTAINING SAME” (KAKEN PHARMACEUTICAL CO., LTD., priority 2022, published 2026).

What was measured:
human STAT6/pIL-4Rα = biological target: T1, human STAT6/pIL-4Rα (Homo sapiens, UniProt P42226); assay: Binding inhibitory activity between human STAT6/pIL-4Rα by fluorescence polarization method; conditions: rhSTAT6 (123-658) / FAM-pIL-4Rα peptide
T1 construct: histidine tag
T1 sequence (P42226 123-658): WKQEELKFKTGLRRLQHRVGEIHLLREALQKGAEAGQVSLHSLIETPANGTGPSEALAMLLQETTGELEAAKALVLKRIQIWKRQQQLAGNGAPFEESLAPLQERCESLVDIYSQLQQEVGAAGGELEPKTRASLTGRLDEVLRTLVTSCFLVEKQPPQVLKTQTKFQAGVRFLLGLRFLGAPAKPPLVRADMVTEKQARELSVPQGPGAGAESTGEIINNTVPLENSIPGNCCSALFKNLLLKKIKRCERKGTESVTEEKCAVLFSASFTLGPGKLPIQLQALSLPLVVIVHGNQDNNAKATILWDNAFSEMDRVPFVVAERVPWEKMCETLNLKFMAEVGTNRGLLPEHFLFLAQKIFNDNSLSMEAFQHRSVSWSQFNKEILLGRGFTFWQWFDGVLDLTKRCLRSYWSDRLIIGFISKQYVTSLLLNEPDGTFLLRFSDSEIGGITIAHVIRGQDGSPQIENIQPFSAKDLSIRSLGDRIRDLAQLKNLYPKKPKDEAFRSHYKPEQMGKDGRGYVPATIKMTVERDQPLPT
Procedure, shortened: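 His-tagged human STAT6 (residues 123–658, E. coli-expressed) was preincubated with compound for 30 min at RT in the dark, in buffer e.g. 50 mM NaCl, 10 mM HEPES pH 7.0, 1 mM DTT, 1 mM EDTA, 0.01% NP-40. FAM-pIL-4Rα peptide was then added for 30 min. Fluorescence polarisation was read at 485/535 nm, with IC50 interpolated linearly between two points flanking 50%.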

human STAT6 = assay: Human STAT6 dependent reporter activity (IL-4 stimulated STAT6 reporter assay using STAT6-HEK293 cells); assay type: cell-based; conditions: IL-4 stimulation, luciferase activity; for inhibition at 0.1 µM / inhibition at 1 µM: Homo sapiens, read-out: Inhibition rate (%)

IC50 (human STAT6/pIL-4Rα) [µM]	Compound	inhibition at 0.1 µM (human STAT6; compound 0.1 μmol/L) [%]	inhibition at 1 µM (human STAT6; compound 1 μmol/L) [%]	Inhibition rate (%) (human STAT6; compound 0.1 μmol/L)	Inhibition rate (%) (human STAT6; compound 1 μmol/L)
0.45	CCn1c(-c2ccc(-n3cnn(C)c3=O)cc2)cc2cc(Br)cc(C(=O)Nc3ccc(F)c(C(N)=O)c3)c21 [Ex. 9]	10	76		
0.34	CCn1c(-c2ccc(-n3c(C)nn(C)c3=O)cc2F)cc2cc(C(F)(F)F)cc(C(=O)Nc3ccc(F)c(C(N)=O)c3)c21 [Ex. 72]	65	97		
0.68	COCCn1c(-c2ccc(-n3c(C)nn(C)c3=O)cc2)cc2cc(C(F)(F)F)cc(C(=O)Nc3cccc(C(=O)Nc4cccc(COC)n4)c3)c21 [Ex. 174]	70			
0.35	CCn1c(-c2ccc(N3C(=O)C(C)CC3C)cc2)nc2cc(C(F)(F)F)cc(C(=O)Nc3cccc(C(N)=O)c3)c21 (single isomer, unassigned) [Ex. 12]	47	94		
1.2	CCn1c(-c2ccc(-n3c(C)nn(C)c3=O)cc2)cc2cc(C(F)(F)F)cc(C(=O)Nc3ccc(F)c(C(N)=O)c3)c21 [Ex. 39]	84	99		
0.33	COCCn1c(-c2ccc(-n3c(C)nn(C)c3=O)cc2)cc2cc(C(F)(F)F)cc(C(=O)Nc3cccc(C(N)=O)n3)c21 [Ex. 171]	29	95		
0.36	CCn1c(-c2ccc(-n3c(C)nn(C)c3=O)cc2)cc2nc(C(F)(F)F)cc(C(=O)Nc3cccc(C(N)=O)c3F)c21 [Ex. 75]	36	93		
0.45	Cn1ncn(-c2ccc(-c3cc4cc(C(F)(F)F)cc(C(=O)Nc5ccc(F)c(C(N)=O)c5)c4[nH]3)cc2)c1=O [Ex. 46]	81	100		
0.35	CCn1c(-c2ccc(-n3c(C)nn(C)c3=O)cc2)cc2cc(F)cc(C(=O)Nc3ccc(F)c(C(N)=O)c3)c21 [Ex. 18]	80	99		
1.94	COCCn1c(-c2ccc(-n3c(C)nn(C)c3=O)cc2)cc2cc(C(F)(F)F)cc(CNc3cccc(C(N)=O)c3)c21 [Ex. 139]	8	69		
0.44	CCn1c(-c2ccc(N3C(=O)C(C)CC3C)cc2)nc2cc(C(F)(F)F)cc(C(=O)Nc3cccc(C(N)=O)c3)c21 (racemic) [Ex. 11]	43	92		
0.25	COCCn1c(-c2ccc(-n3c(C)nn(C)c3=O)cc2)cc2cc(C(F)(F)F)nc(C(=O)Nc3cccc(C(N)=O)c3)c21 [Ex. 91]	67	99		
0.61	CCn1c(-c2ccc(-n3c(C)nn(C)c3=O)nc2)cc2cccc(C(=O)Nc3ccc(F)c(C(N)=O)c3)c21 [Ex. 151]	26	77		
0.38	Cc1nn(C)c(=O)n1-c1ccc(-c2cc3cccc(C(=O)Nc4cccc(C(N)=O)c4F)c3n2CC2CC2)cc1 [Ex. 119]	95			
0.42	CCn1c(-c2ccc(-n3c(C)nn(C)c3=O)cc2)cc2ccnc(C(=O)Nc3cccc(C(=O)Nc4cncn(C)c4=O)c3F)c21 [Ex. 193]	67	98		
0.34	CCn1c(-c2ccc(-n3c(C)nn(C)c3=O)cc2)cc2ccnc(C(=O)Nc3ccc(F)c(C(=O)Nc4cncn(C)c4=O)c3)c21 [Ex. 192]	71			
0.66	CCn1c(-c2ccc(-n3c(C)nn(C)c3=O)nc2)cc2cc(C(F)(F)F)cc(C(=O)Nc3ccc(F)c(C(N)=O)c3)c21 [Ex. 20]	50	98		
0.34	CCn1c(-c2ccc(-n3ncn(C)c3=O)cc2)cc2cc(C(F)(F)F)cc(C(=O)Nc3cccc(C(N)=O)c3)c21 [Ex. 48]	84	100		
0.51	CCn1c(-c2ccc(N3C(=O)C(C)CC3C)cc2)cc2ccnc(C(=O)Nc3cccc(C(N)=O)c3)c21 (stereo not drawn) [Ex. 131]	56	92		
0.23	COCCn1c(-c2ccc(N3C(=O)C(C)CC3C)cc2)cc2cc(C(F)(F)F)nc(C(=O)Nc3ccc(F)c(C(N)=O)c3)c21 (stereo not drawn) [Ex. 133]	80			
0.28	COCCn1c(-c2ccc(-n3c(C)nn(C)c3=O)cc2)cc2cc(C(F)(F)F)cc(C(=O)Nc3cccc(N)n3)c21 [Ex. 95]	74			

IC50 (human STAT6/pIL-4Rα) [µM]	Compound	inhibition at 0.1 µM (human STAT6; compound 0.1 μmol/L) [%]	inhibition at 1 µM (human STAT6; compound 1 μmol/L) [%]	Inhibition rate (%) (human STAT6; compound 0.1 μmol/L)	Inhibition rate (%) (human STAT6; compound 1 μmol/L)
0.4	COCCn1c(-c2ccc(-n3c(C)nn(C)c3=O)cc2)cc2cc(C(F)(F)F)cc(C(=O)Nc3ccnn3C)c21 [Ex. 80]	4	61		
0.37	CCn1c(-c2ccc(-n3ncn(C)c3=O)cc2)cc2ccnc(C(=O)Nc3ccc(F)c(C(N)=O)c3)c21 [Ex. 144]	48	99		
0.46	Cc1nn(C)c(=O)n1-c1ccc(-c2cc3ccnc(C(=O)Nc4ccc(F)c(C(N)=O)c4)c3n2C)cc1 [Ex. 108]	52	97		
0.47	CCn1c(-c2ccc(-n3c(C)nn(C)c3=O)cn2)cc2cc(C(F)(F)F)cc(C(=O)Nc3ccc(F)c(C(N)=O)c3)c21 [Ex. 61]	93	100		
0.25	CCn1c(-c2ccc(-n3c(C)nn(C)c3=O)nn2)cc2cc(C(F)(F)F)cc(C(=O)Nc3cccc(C(N)=O)c3F)c21 [Ex. 127]	38	99		
0.41	CCn1c(-c2ccc(-n3c(C)nn(C)c3=O)cc2)cc2ccnc(C(=O)Nc3cccc(C(=O)Nc4cc(Cl)n(C)n4)c3)c21 [Ex. 198]	96			
0.36	CCn1c(-c2ccc(N3C(=O)C(C)CC3C)cc2)cc2ccnc(C(=O)Nc3ccc(F)c(C(N)=O)c3)c21 (stereo not drawn) [Ex. 130]			74	96
0.74	CCn1c(-c2ccc(N3CCCC3=O)cc2)nc2cc(Br)cc(C(=O)Nc3cccc(C(N)=O)c3)c21 [Ex. 4]	12	64		
0.59	CCn1c(-c2ccc(N3C(=O)C(C)CC3C)cc2)cc2ccnc(C(=O)Nc3ccc(F)c(C(N)=O)c3)c21 (stereo not drawn) [Ex. 129]			8	75
0.3	COCCn1c(-c2ccc(-n3c(C)nn(C)c3=O)cc2)cc2cc(C(F)(F)F)cc(C(=O)Nc3cccc(COC)n3)c21 [Ex. 100]	85			
0.2	CCn1c(-c2ccc(-n3c(C)nn(C)c3=O)cc2)cc2ccnc(C(=O)Nc3cccc(C(=O)Nc4cc(C)cn(C)c4=O)c3)c21 [Ex. 165]	86	100		
0.44	CCn1c(-c2ccc(-n3cnn(C)c3=O)cn2)cc2cc(C(F)(F)F)cc(C(=O)Nc3cccc(C(N)=O)c3F)c21 [Ex. 65]	50	98		
0.34	COCCn1c(-c2ccc(-n3c(C)nn(C)c3=O)cc2)cc2ccnc(C(=O)Nc3cccc(C(=O)Nc4cc(Cl)n(C)n4)c3)c21 [Ex. 202]	95			
0.31	Cc1nn(C)c(=O)n1-c1ccc(-c2cc3cc(C(F)(F)F)nc(C(=O)Nc4cccc(C(N)=O)c4F)c3n2C)cc1 [Ex. 94]	79			
0.4	Cc1nn(C)c(=O)n1-c1ccc(-c2cc3ccnc(C(=O)Nc4cccc(C(N)=O)c4F)c3n2CCC(F)F)cc1 [Ex. 112]	38	93		
0.45	Cc1nn(C)c(=O)n1-c1ccc(-c2cc3cc(C(F)(F)F)cc(C(=O)Nc4ccc(F)c(C(N)=O)c4)c3n2CC2(C#N)CC2)cc1 [Ex. 124]	57	99		
0.39	COCCn1c(-c2ccc(-n3c(C)nn(C)c3=O)cc2)c(Cl)c2cc(C(F)(F)F)cc(C(=O)Nc3ccc(F)c(C(N)=O)c3)c21 [Ex. 143]	87	99		
0.68	CCn1c(-c2ccc(N3C(=O)C(C)CC3C)cc2)nc2cc(C(F)(F)F)cc(C(=O)Nc3cccc(C(N)=O)c3F)c21 (stereo not drawn) [Ex. 218]	38	89		
0.53	CCn1c(-c2ccc(N3C(=O)C(C)CC3C)cc2)cc2cc(C(F)(F)F)nc(C(=O)Nc3ccc(F)c(C(N)=O)c3)c21 (stereo not drawn) [Ex. 135]	85			
0.28	COCCn1c(-c2ccc(N3C(=O)C(C)CC3C)cc2)cc2ccnc(C(=O)Nc3ccc(F)c(C(N)=O)c3)c21 (stereo not drawn) [Ex. 137]	62			
0.32	CC1CC(C)N(c2ccc(-c3cc4ccnc(C(=O)Nc5cccc(C(N)=O)c5F)c4n3CC3(C#N)CC3)cc2)C1=O (single isomer, unassigned) [Ex. 223]	67			
